Experimental data: PMC3366211, “Leishmanicidal Activity of Nine Novel Flavonoids from Delphinium staphisagria” (The Scientific World Journal, 2012)

Key:
[1] = system: L. infantum promastigote forms; experiment: Promastigote forms assay; type: cell-based, Leishmania infantum; conditions: for SI Promastigote forms: IC50 macrophages/IC50 parasite form; for IC50: Leishmania infantum, 72 h; for times SI exceeds the reference drug SI (all forms): extracellular and intracellular forms; for times SI exceeds the reference drug SI (all forms) / number of times that compound SI exceeds the reference drug SI, Promastigote forms: reference Glucantime; for number of times that compound SI exceeds the reference drug SI, Promastigote forms: in brackets
Method: (§1) The compounds obtained were dissolved in the culture medium, at dosages of 100, 50, 25, 10, and 1 μM. The effects of each compound against promastigote forms were tested at 72 hours using a Neubauer haemocytometric chamber. The antileishmanial effect is expressed as the IC50, that is, the concentration required to give 50% inhibition, calculated by linear regression analysis from the Kc values of the concentrations employed.

[2] = system: L. braziliensis promastigote forms; experiment: Promastigote forms assay; type: cell-based, Leishmania braziliensis; conditions: for SI Promastigote forms: IC50 macrophages/IC50 parasite form; for IC50: Leishmania braziliensis, 72 h; for number of times that compound SI exceeds the reference drug SI, Promastigote forms: in brackets, reference Glucantime
Method: as §1

[3] = system: L. infantum axenic amastigote forms; experiment: Axenic amastigote forms assay; type: cell-based, Leishmania infantum; conditions: for SI Axenic amastigote forms: IC50 macrophages/IC50 parasite form; for IC50: Leishmania infantum, 48 hours per method (72 h); for number of times that compound SI exceeds the reference drug SI, Axenic amastigote forms: in brackets, reference Glucantime
Method: (§2) Axenic amastigotes forms of L. infantum and L. braziliensis were cultured following the methodology described previously by Moreno et al.. Thus, promastigote transformation to amastigotes was obtained after three days of culture in M199 medium (Invitrogen, Leiden, The Netherlands) supplemented with 10% heat-inactivated FCS, 1 g/L β-alanine, 100 mg/L L-asparagine, 200 mg/L sacarose, 50 mg/L sodium pyruvate, 320 mg/L malic acid, 40 mg/L fumaric acid, 70 mg/L succinic acid, 200 mg/L α-ketoglutaric acid, 300 mg/L citric acid, 1.1 g/L sodium bicarbonate, 5 g/L MES, 0.4 mg/L hemin, and 10 mg/L gentamicin pH 5.4 at 37°C. The effect of each compound against axenic amastigotes forms was tested at 48 hours using a Neubauer haemocytometric chamber. The antileishmanial effect is expressed as the IC50.

[4] = system: L. braziliensis axenic amastigote forms; experiment: Axenic amastigote forms assay; type: cell-based, Leishmania braziliensis; conditions: for SI Axenic amastigote forms: IC50 macrophages/IC50 parasite form; for IC50: Leishmania braziliensis, 48 hours per method (72 h); for number of times that compound SI exceeds the reference drug SI, Axenic amastigote forms: in brackets, reference Glucantime
Method: as §2

[5] = system: L. infantum intracellular amastigote forms; experiment: Intracellular amastigote forms assay in J774.2 macrophages; type: cell-based, Leishmania infantum; conditions: for SI Intracellular amastigote forms / number of times that compound SI exceeds the reference drug SI, Intracellular amastigote forms: L. infantum; for SI Intracellular amastigote forms: IC50 macrophages/IC50 parasite form; for number of times that compound SI exceeds the reference drug SI, Intracellular amastigote forms: in brackets, reference Glucantime; for IC50: Leishmania infantum, L. infantum in J774.2 macrophages, 72 h
Method: (§3) Cells were seeded at a density of 1 × 10^4 cells/well in 24-well microplates (Nunc) with rounded coverslips on the bottom and cultured for 2 days. Afterwards the cells were infected in vitro with promastigote forms of L. infantum and L. braziliensis, at a ratio of 10 : 1 during 24 hours. The non-phagocytosed parasites were removed by washing, and then the drugs (at 1, 10, 25, 50, 100 μM) were added. Macrophages with the drugs were incubated for 72 hours at 37°C in 5% CO2.
(§4) Drug activity was determined on the basis of number of amastigotes in treated and untreated cultures in methanol-fixed and Giemsa-stained preparations. The number of amastigotes was determined by analyzing 200 host cells distributed in randomly chosen microscopic fields. The antileishmanial effect is expressed as the IC50 values are the means of three separate determinations.

[6] = system: L. braziliensis intracellular amastigote forms; experiment: as above; type: cell-based, Leishmania braziliensis; conditions: for SI Intracellular amastigote forms / number of times that compound SI exceeds the reference drug SI, Intracellular amastigote forms: L. braziliensis; for SI Intracellular amastigote forms: IC50 macrophages/IC50 parasite form; for number of times that compound SI exceeds the reference drug SI, Intracellular amastigote forms: in brackets, reference Glucantime; for IC50: Leishmania braziliensis, L. braziliensis in J774.2 macrophages, 72 h
Method: as §3, §4

J774.2 macrophages = experiment: Cytotoxicity test for macrophages (flow cytometry); type: cell-based, BALB/c rat; conditions: Mus musculus, J774.2, 72 h, J774.2 macrophages after 72 h of culture; read-out: Macrophage toxicity IC50
Method: J774.2 macrophages (ECACC number 91051511) were originally obtained from a tumour in a female BALB/c […] in 1968. The cytotoxicity test for macrophages was performed according to the methodology of González et al.. After 72 hours of treatment, cell viability was determined by flow cytometry. Thus, 100 μL/well of propidium iodide solution ([…]) was added and incubated for 10 min at 28°C in darkness. Afterwards, 100 μL/well of fluorescein diacetate (100 ng/mL) was added and incubated under the same conditions. Finally, the cells were recovered by centrifugation at 400 g for 10 min and the precipitate washed with phosphate buffered saline (PBS). Flow cytometric analysis was performed with a FACSVantage flow cytometer (Becton Dickinson). The percentage viability was calculated in comparison with the control culture. The IC50 was calculated using linear regression analysis from the Kc values of the concentrations employed.

[7] = system: epimastigote forms of Trypanosoma cruzi; design: method as in PMID 21466157; conditions: cited from earlier work

| SMILES | SI Promastigote forms [1] | IC50 [1] | times SI exceeds the reference drug SI (all forms) [1] | number of times that compound SI exceeds the reference drug SI, Promastigote forms [1] | SI Promastigote forms [2] | IC50 [2] | number of times that compound SI exceeds the reference drug SI, Promastigote forms [2] | SI Axenic amastigote forms [3] | IC50 [3] | number of times that compound SI exceeds the reference drug SI, Axenic amastigote forms [3] | SI Axenic amastigote forms [4] | IC50 [4] | number of times that compound SI exceeds the reference drug SI, Axenic amastigote forms [4] | SI Intracellular amastigote forms [5] | number of times that compound SI exceeds the reference drug SI, Intracellular amastigote forms [5] | IC50 [5] | SI Intracellular amastigote forms [6] | number of times that compound SI exceeds the reference drug SI, Intracellular amastigote forms [6] | IC50 [6] | IC50 (J774.2 macrophages) | also measured |
| --- | --- | --- | --- | --- | --- | --- | --- | --- | --- | --- | --- | --- | --- | --- | --- | --- | --- | --- | --- | --- | --- |
| CC(=O)O[C@H]1[C@H](Oc2c(-c3ccc(O)cc3)oc3cc(O)cc(O)c3c2=O)O[C@H](CO)[C@@H](O)[C@@H]1O [Compound 2] | 7.8 | 34.1 ± 1.6 µM | < 50 times | 10 | 10.6 | 25.1 ± 2.5 µM | 18 | 8.2 | 32.7 ± 5 µM | 14 | 9.6 | 27.9 ± 2.7 µM | 19 | 6.3 | 13 | 42.3 ± 3.9 µM | 8.8 | 18 | 30.2 ± 3.8 µM | 267 ± 11 µM | IC50 compared with benznidazole [7]: significantly lower IC50 values compared with benznidazole |
| O=c1c(O[C@@H]2O[C@H](CO)[C@@H](O)[C@H](O)[C@H]2O)c(-c2ccc(O)cc2)oc2cc(O)cc(O)c12 [Compound 1, astragalin] | 6.7 | 35.1 ± 3.3 µM | < 50 times | 8 | 8.4 | 28.1 ± 1 µM | 14 | 8.1 | 29.2 ± 2.8 µM | 14 | 10.4 | 22.6 ± 1.7 µM | 21 | 5.1 | 10 | 45.9 ± 2.7 µM | 7.3 | 15 | 32.2 ± 1.6 µM | 236 ± 17.9 µM | IC50 compared with benznidazole [7]: significantly lower IC50 values compared with benznidazole |
| CC(=O)OC[C@H]1O[C@@H](Oc2c(-c3ccc(OC(C)=O)cc3)oc3cc(OC(C)=O)cc(OC(C)=O)c3c2=O)[C@H](OC(C)=O)[C@@H](OC(C)=O)[C@@H]1OC(C)=O [Compound 3] | 8.7 | 40.4 ± 3.4 µM | < 50 times | 11 | 12.3 | 28.4 ± 3 µM | 21 | 12.0 | 29.2 ± 3.1 µM | 20 | 10.7 | 32.9 ± 3 µM | 21 | 9.2 | 18 | 38.1 ± 1.6 µM | 8.4 | 17 | 41.9 ± 4 µM | 351 ± 26.8 µM | IC50 compared with benznidazole [7]: significantly lower IC50 values compared with benznidazole |
